For assay [1], the target named is Recombinant human c-KIT kinase (Homo sapiens (Human), UniProt P10721). Description: c-KIT kinase chemiluminescence assay (ADP-Glo). The format is biochemical. The conditions noted are these: ATP 50 μM. In short, it runs like this: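 ADP formed by c-KIT on polyEY over 2 h at RT (after 30 min enzyme preincubation; Tris pH 7.5, MgCl2, BSA, DTT buffer) was detected by ADP-Glo luminescence. IC50 and Hill slope were fitted to control-normalized activity across compound concentrations.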
A general note: In ADP-Glo the light output rises with the ADP produced.

The test system of assay [2] is M-07e cells. Description: M-07e cellular assay (SCF-mediated cell proliferation). The conditions noted are these: Homo sapiens, 72 hours, CellTiter Glo. The format is cell-based. In short, it runs like this: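 CellTiter Glo luminescence after 72 h compound exposure in SCF (EC90)-stimulated M-07e cells expressing endogenous human c-KIT.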
(In general: In ATP-based viability assays light output follows the ATP content of the culture.)

By IC50 is commonly meant the midpoint of a concentration-inhibition curve. The term EC50 denotes the concentration that produces a half-maximal response.

Recombinant human c-KIT kinase, sequence (P10721 26-976): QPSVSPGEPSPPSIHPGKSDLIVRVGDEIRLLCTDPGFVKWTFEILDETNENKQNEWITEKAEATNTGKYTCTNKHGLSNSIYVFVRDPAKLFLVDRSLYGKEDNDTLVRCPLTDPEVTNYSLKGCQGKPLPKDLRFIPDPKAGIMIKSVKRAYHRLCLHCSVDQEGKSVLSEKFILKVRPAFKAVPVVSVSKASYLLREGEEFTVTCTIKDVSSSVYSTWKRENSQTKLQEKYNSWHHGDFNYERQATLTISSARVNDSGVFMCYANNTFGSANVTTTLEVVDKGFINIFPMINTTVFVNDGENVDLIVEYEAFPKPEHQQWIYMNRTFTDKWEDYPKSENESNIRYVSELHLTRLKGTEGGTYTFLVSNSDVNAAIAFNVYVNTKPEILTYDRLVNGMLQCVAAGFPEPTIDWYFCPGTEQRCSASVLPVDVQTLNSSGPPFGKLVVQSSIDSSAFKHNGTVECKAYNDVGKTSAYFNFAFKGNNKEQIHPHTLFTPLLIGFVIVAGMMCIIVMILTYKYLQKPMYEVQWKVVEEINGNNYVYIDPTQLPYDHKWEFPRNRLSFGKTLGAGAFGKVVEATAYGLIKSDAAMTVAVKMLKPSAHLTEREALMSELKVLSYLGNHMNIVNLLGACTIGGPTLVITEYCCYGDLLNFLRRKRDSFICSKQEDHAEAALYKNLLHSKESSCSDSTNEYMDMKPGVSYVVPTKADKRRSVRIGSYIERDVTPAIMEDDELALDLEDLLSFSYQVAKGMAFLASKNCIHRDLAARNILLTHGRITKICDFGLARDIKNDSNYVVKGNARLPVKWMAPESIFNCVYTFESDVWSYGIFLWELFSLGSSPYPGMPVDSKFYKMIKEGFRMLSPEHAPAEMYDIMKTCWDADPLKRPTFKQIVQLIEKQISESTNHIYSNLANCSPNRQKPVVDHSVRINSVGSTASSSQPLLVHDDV

With `Cc1ccc(-c2noc([C@H]3C[C@@H]3F)n2)c(F)c1NC(=O)c1cnn2ccc(N3CC4(COC4)C3)cc12` [Example 281-65], the IC50 in assay [1] was below 100 nM. The molecule also yielded an EC50 in assay [2] below 100 nM.
Consider `Cc1ncc(-c2noc([C@H]3C[C@H](C(F)(F)F)C3)n2)cc1NC(=O)c1cnn2ccc(N3CC4(COC4)C3)cc12` [Example 281-66], for which the IC50 in assay [1] is 100 to 1000 nM. For the same molecule, in assay [2], the EC50 was below 100 nM.
`Cc1ncc(-c2noc(C3CC(F)(F)C3)n2)cc1NC(=O)c1cnn2ccc(N3CC4(COC4)C3)cc12` [Example 281-67]: the IC50 in assay [1] fell in the range of 100 to 1000 nM. The same molecule returned a concentration giving a half-maximal response (EC50) in assay [2] below 100 nM.
As to `Cc1ncc(-c2noc([C@H]3C[C@H](C(F)(F)F)C3)n2)cc1NC(=O)c1cnn2ccc(N3CC4(C3)CC(O)(C(F)F)C4)cc12` [Example 281-68], the IC50 in assay [1] is below 100 nM. Besides, the EC50 in assay [2] was below 100 nM.
On to `Cc1ncc(-c2noc(C3CC(F)(F)C3)n2)cc1NC(=O)c1cnn2ccc(N3CC4(C3)CC(O)(C(F)F)C4)cc12` [Example 281-69], for which the IC50 in assay [1] was 100 to 1000 nM. The molecule also showed an EC50 in assay [2] below 100 nM.
With `Cc1nnc(N2CC(c3nc(-c4cnc(C)c(NC(=O)c5cnn6ccc(N7CC8(C7)CC(O)(C(F)F)C8)cc56)c4)no3)C2)o1` [Example 281-70], in assay [1], the IC50 is above 1000 nM. In assay [2], this molecule had an EC50 above 1000 nM.
Take `Cc1nnc(N2CC(c3nc(-c4cnc(C)c(NC(=O)c5cnn6ccc(N7CC8(COC8)C7)cc56)c4)no3)C2)o1` [Example 281-71]: the IC50 in assay [1] was above 1000 nM. In assay [2], this molecule yielded an EC50 above 1000 nM.
On to `CC(=O)N1CCC(c2nc(-c3cnc(C)c(NC(=O)c4cnn5ccc(N6CC7(C6)CC(O)(C(F)F)C7)cc45)c3)no2)CC1` [Example 281-72], for which, in assay [1], the IC50 was above 1000 nM. This molecule also came in with an EC50 in assay [2] above 1000 nM.
Turning to `CC(=O)N1CC2(CC(c3nc(-c4cnc(C)c(NC(=O)c5cnn6ccc(N7CC8(C7)CC(O)(C(F)F)C8)cc56)c4)no3)C2)C1` [Example 281-73], the IC50 in assay [1] was above 1000 nM. In addition, the EC50 in assay [2] was above 1000 nM.
With `CC(=O)N1CCC(c2nc(-c3cnc(C)c(NC(=O)c4cnn5ccc(N6CC7(COC7)C6)cc45)c3)no2)C1` (stereo not drawn) [Example 281-74], the IC50 in assay [1] was above 1000 nM. The molecule also displayed an EC50 in assay [2] above 1000 nM.
`CC(=O)N1CCC(c2nc(-c3cnc(C)c(NC(=O)c4cnn5ccc(N6CC7(COC7)C6)cc45)c3)no2)CC1` [Example 281-75]: the IC50 in assay [1] is above 1000 nM. Besides, the EC50 in assay [2] was above 1000 nM.
Take `CC(=O)N1CC2(CC(c3nc(-c4cnc(C)c(NC(=O)c5cnn6ccc(N7CC8(COC8)C7)cc56)c4)no3)C2)C1` [Example 281-76]: the IC50 in assay [1] was above 1000 nM. In addition, the EC50 in assay [2] is above 1000 nM.
For the molecule `COC(=O)N1CC(c2nc(-c3cnc(C)c(NC(=O)c4cnn5ccc(N6CC7(COC7)C6)cc45)c3)no2)C1` [Example 281-77], in assay [1], the IC50 lay in the range of 100 to 1000 nM. This molecule also showed an EC50 in assay [2] of 100 to 1000 nM.
`COC(=O)N1CC(c2nc(-c3cnc(C)c(NC(=O)c4cnn5ccc(N6CC7(C6)CC(O)(C(F)F)C7)cc45)c3)no2)C1` [Example 281-78]: in assay [1], the IC50 is below 100 nM. In assay [2], the EC50 was below 100 nM.
`Cc1ncc(-c2noc(C3CN(C(=O)[C@H]4C[C@@H]4F)C3)n2)cc1NC(=O)c1cnn2ccc(N3CC4(C3)CC(O)(C(F)F)C4)cc12` [Example 281-79]: the IC50 in assay [1] was above 1000 nM. The EC50 in assay [2] was above 1000 nM.
As to `Cc1ncc(-c2noc(C3CN(C(=O)[C@H]4C[C@@H]4F)C3)n2)cc1NC(=O)c1cnn2ccc(N3CC4(COC4)C3)cc12` [Example 281-80], in assay [1], the IC50 was above 1000 nM. In assay [2], this molecule came in with an EC50 above 1000 nM.
Take `Cc1ccc(-c2noc(N3CC(F)(F)C3)n2)cc1NC(=O)c1cnn2ccc(N3CC4(COC4)C3)cc12` [Example 281-81]: the IC50 in assay [1] fell in the range of 100 to 1000 nM. The molecule further registered an EC50 in assay [2] below 100 nM.
Consider `Cc1ccc(-c2noc(N3CC(O)(C(F)(F)F)C3)n2)cc1NC(=O)c1cnn2ccc(N3CC4(COC4)C3)cc12` [Example 281-82], for which, in assay [1], the IC50 is below 100 nM. Further, in assay [2], the EC50 is below 100 nM.
Consider `Cc1ccc(-c2noc(N3CCOCC3)n2)cc1NC(=O)c1cnn2ccc(N3CC4(COC4)C3)cc12` [Example 281-83], for which the IC50 in assay [1] lay within 100 to 1000 nM. The molecule also registered an EC50 in assay [2] below 100 nM.
As for `Cc1ncc(-c2noc(C3CN(C(=O)C4(F)CC4)C3)n2)cc1NC(=O)c1cnn2ccc(N3CC4(C3)CC(O)(C(F)F)C4)cc12` [Example 281-84], in assay [1], the IC50 was above 1000 nM. For the same molecule, in assay [2], the EC50 lay in the range of 100 to 1000 nM.
Regarding `Cc1ncc(-c2noc(C3CN(C(=O)C4(F)CC4)C3)n2)cc1NC(=O)c1cnn2ccc(N3CC4(COC4)C3)cc12` [Example 281-85], the IC50 in assay [1] is above 1000 nM. In assay [2], the EC50 lay within 100 to 1000 nM.
As to `Cc1ncc(-c2noc(C3CN(C(=O)C4CC4)C3)n2)cc1NC(=O)c1cnn2ccc(N3CC4(C3)CC(O)(C(F)F)C4)cc12` [Example 281-86], the IC50 in assay [1] is above 1000 nM. This molecule registered an EC50 in assay [2] above 1000 nM.
On to `Cc1ncc(-c2noc(C3CN(C(=O)C4CC4)C3)n2)cc1NC(=O)c1cnn2ccc(N3CC4(COC4)C3)cc12` [Example 281-87], for which, in assay [1], the IC50 is above 1000 nM. Moreover, the EC50 in assay [2] was above 1000 nM.
On to `Cc1ncc(-c2noc(C3CN(CC(F)(F)F)C3)n2)cc1NC(=O)c1cnn2ccc(N3CC4(C3)CC(O)(C(F)F)C4)cc12` [Example 281-88], for which the IC50 in assay [1] was in the range of 100 to 1000 nM. Moreover, the EC50 in assay [2] was below 100 nM.
Regarding `Cc1ncc(-c2noc([C@H]3CC3(F)F)n2)cc1NC(=O)c1cnn2ccc(N3CC4(C3)CC(O)(C(F)F)C4)cc12` [Example 281-89], the IC50 in assay [1] is 100 to 1000 nM. The EC50 in assay [2] was below 100 nM.
In the case of `Cc1ncc(-c2noc(C3CN(C(=O)OC(C)(C)C)C3)n2)cc1NC(=O)c1cnn2ccc(N3CC4(C3)CC(O)(C(F)F)C4)cc12` [Example 281-90], the IC50 in assay [1] was above 1000 nM. For the same molecule, the EC50 in assay [2] is 100 to 1000 nM.
As to `Cc1ncc(-c2noc(C3CN(C(=O)[C@H]4CC4(F)F)C3)n2)cc1NC(=O)c1cnn2ccc(N3CC4(C3)CC(O)(C(F)F)C4)cc12` [Example 281-91], the IC50 in assay [1] is above 1000 nM. The same molecule showed an EC50 in assay [2] above 1000 nM.
Regarding `Cc1ccc(-c2noc(C3CCN(C(=O)[C@H]4C[C@@H]4F)C3)n2)cc1NC(=O)c1cnn2ccc(N3CC4(COC4)C3)cc12` (stereo partly drawn) [Example 281-92], the IC50 in assay [1] lay within 100 to 1000 nM. Also, the EC50 in assay [2] was 100 to 1000 nM.
As for `Cc1ccc(-c2noc(C3CCN(C(=O)[C@H]4C[C@@H]4F)CC3)n2)cc1NC(=O)c1cnn2ccc(N3CC4(COC4)C3)cc12` [Example 281-93], in assay [1], the IC50 fell in the range of 100 to 1000 nM. In assay [2], this molecule came in with an EC50 of 100 to 1000 nM.
Take `O=C(Nc1cc(-c2noc([C@H]3C[C@@H]3F)n2)ccc1C1CC1)c1cnn2ccc(N3CC4(COC4)C3)cc12` [Example 281-94]: the IC50 in assay [1] is above 1000 nM. In assay [2], the EC50 is above 1000 nM.
In the case of `Cc1sc(-c2noc([C@H]3C[C@@H]3F)n2)cc1NC(=O)c1cnn2ccc(N3CC4(C3)CC(O)(C(F)F)C4)cc12` [Example 281-95], the IC50 in assay [1] is 100 to 1000 nM. The EC50 in assay [2] is below 100 nM.
As for `Cc1ccc(-c2noc(C3CCN(C(=O)[C@H]4C[C@@H]4F)C3)n2)cc1NC(=O)c1cnn2ccc(N3CC4(C3)CC(O)(C(F)F)C4)cc12` (stereo partly drawn) [Example 281-96], the IC50 in assay [1] lay in the range of 100 to 1000 nM. Further, the EC50 in assay [2] was 100 to 1000 nM.
`Cc1ccc(-c2noc(C3CCN(C(=O)[C@H]4C[C@@H]4F)CC3)n2)cc1NC(=O)c1cnn2ccc(N3CC4(C3)CC(O)(C(F)F)C4)cc12` [Example 281-97]: the IC50 in assay [1] was in the range of 100 to 1000 nM. In addition, in assay [2], the concentration for a half-maximal effect (EC50) was in the range of 100 to 1000 nM.

(Values after patent publication US20250059174A1, “Pharmaceutical Compounds and Compositions as C-Kit Kinase Inhibitors” (Enanta Pharmaceuticals, Inc., priority 2023, published 2025).)
